Assay results from patent publication US10750743B2, “Pyridazinone herbicides” (E.I. DU PONT DE NEMOURS AND COMPANY, priority 2015, dated 2020).

Experiments:
Assay type in all cases: in vivo
[1] = system: barnyardgrass (Echinochloa crus-galli); experiment: Test A postemergence application, visual injury rating; details: 0 to 100 scale, 0 no effect, 100 complete control
How it was run: (§1)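 Injury ratings, 0 (no effect) to 100 (complete control), were scored visually versus untreated plants roughly 10 d after treatment under greenhouse conditions. Treatments used surfactant-containing solvent formulations, sprayed onto soil preemergence or onto one- to two-leaf seedlings (2-10 cm) postemergence, grown in a loam-sand mix.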

[2] = system: kochia (Kochia scoparia); experiment: as above; details: 0 to 100 scale, 0 no effect, 100 complete control
How it was run: as §1

[3] = system: foxtail, giant (giant foxtail, Setaria faberii); experiment: as above; details: 0 to 100 scale, 0 no effect, 100 complete control
How it was run: as §1

[4] = system: corn (Zea mays); experiment: as above; details: 0 to 100 scale, 0 no effect, 100 complete control
How it was run: as §1

[5] = system: pigweed (Amaranthus retroflexus); experiment: as above; details: 0 to 100 scale, 0 no effect, 100 complete control
How it was run: as §1

[6] = system: galium (catchweed bedstraw, Galium aparine); experiment: as above; details: 0 to 100 scale, 0 no effect, 100 complete control
How it was run: as §1

[7] = system: ragweed (common ragweed, Ambrosia elatior); experiment: as above; details: 0 to 100 scale, 0 no effect, 100 complete control
How it was run: as §1

[8] = system: wheat (Triticum aestivum); experiment: as above; details: 0 to 100 scale, 0 no effect, 100 complete control
How it was run: as §1

[9] = system: blackgrass (Alopecurus myosuroides); experiment: as above; details: 0 to 100 scale, 0 no effect, 100 complete control
How it was run: as §1

[10] = system: ryegrass, It. (Italian ryegrass, Lolium multiflorum); experiment: as above; details: 0 to 100 scale, 0 no effect, 100 complete control
How it was run: as §1

[11] = system: barnyardgrass (Echinochloa crus-galli); experiment: Test B flooded paddy test, visual rating; details: Flood, 250 g ai/ha, applied to paddy water, rated after 13 to 15 d
How it was run: (§2)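 Ratings use a 0-100 visual scale, where 100 is complete control, and compare treated plants with controls after 13 to 15 d of greenhouse growth. Compound went straight into paddy water kept 3 cm over the soil surface, applied to seedlings at the 2-leaf stage.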

[12] = system: rice (Oryza sativa); experiment: Test B flooded paddy test, visual rating; details: Flood, 250 g ai/ha, applied to paddy water, rated after 13 to 15 d
How it was run: as §2

[13] = system: sedge, umbrella (small-flower umbrella sedge, Cyperus difformis); experiment: Test B flooded paddy test, visual rating; details: Flood, 250 g ai/ha, applied to paddy water, rated after 13 to 15 d
How it was run: as §2

[14] = system: ducksalad (Heteranthera limosa); experiment: Test B flooded paddy test, visual rating; details: Flood, 250 g ai/ha, applied to paddy water, rated after 13 to 15 d
How it was run: as §2

[15] = system: barnyardgrass (Echinochloa crus-galli); experiment: Test A preemergence, directed soil spray, visual injury rating; details: 0 is no effect, 100 is complete control
How it was run: as §1

[16] = system: kochia (Kochia scoparia); experiment: as above; details: 0 is no effect, 100 is complete control
How it was run: as §1

[17] = system: foxtail, giant (giant foxtail, Setaria faberii); experiment: as above; details: 0 is no effect, 100 is complete control
How it was run: as §1

[18] = system: pigweed (Amaranthus retroflexus); experiment: as above; details: 0 is no effect, 100 is complete control
How it was run: as §1

[19] = system: ragweed (common ragweed, Ambrosia elatior); experiment: as above; details: 0 is no effect, 100 is complete control
How it was run: as §1

[20] = system: ryegrass, It. (Italian ryegrass, Lolium multiflorum); experiment: as above; details: 0 is no effect, 100 is complete control
How it was run: as §1

Cc1nn(C)c(=O)c(-c2cccc3sccc23)c1O [Compound 32]
80: Galium plant response rating ([6]; 500 g ai/ha) | Plant response rating (0 to 100 scale), Ragweed ([19]; 500 g ai/ha)
100: Plant response rating (0 to 100 scale), Pigweed ([18]; 500 g ai/ha) | Plant response rating (0 to 100 scale), Ryegrass, It. ([20]; 500 g ai/ha)
40: Foxtail, Giant plant response rating ([3]; 500 g ai/ha) | Galium plant response rating ([6]; 125 g ai/ha) | Ragweed plant response rating ([7]; 500 g ai/ha) | Ducksalad plant response rating (0 to 100 scale, 0 is no effect, 100 is complete control) [14] | Plant response rating (0 to 100 scale), Barnyardgrass ([15]; 500 g ai/ha) | Plant response rating (0 to 100 scale), Kochia ([16]; 500 g ai/ha) | Plant response rating (0 to 100 scale), Pigweed ([18]; 125 g ai/ha)
20: Kochia plant response rating ([2]; 125 g ai/ha) | Wheat plant response rating ([8]; 500 g ai/ha) | Plant response rating (0 to 100 scale), Barnyardgrass ([15]; 125 g ai/ha)
70: Kochia plant response rating ([2]; 500 g ai/ha) | Ryegrass, It. plant response rating ([10]; 125 g ai/ha) | Plant response rating (0 to 100 scale), Ryegrass, It. ([20]; 125 g ai/ha)
30: Pigweed plant response rating ([5]; 125 g ai/ha) | Pigweed plant response rating ([5]; 500 g ai/ha) | Blackgrass plant response rating ([9]; 500 g ai/ha) | Plant response rating (0 to 100 scale), Kochia ([16]; 125 g ai/ha)
90: Ryegrass, It. plant response rating ([10]; 500 g ai/ha)
50: Barnyardgrass plant response rating ([1]; 500 g ai/ha) | Sedge, Umbrella plant response rating (0 to 100 scale, 0 is no effect, 100 is complete control) [13] | Plant response rating (0 to 100 scale), Foxtail, Giant ([17]; 500 g ai/ha)
10: Plant response rating (0 to 100 scale), Foxtail, Giant ([17]; 125 g ai/ha)
0: Barnyardgrass plant response rating ([1]; 125 g ai/ha) | Foxtail, Giant plant response rating ([3]; 125 g ai/ha) | Corn plant response rating ([4]; 125 g ai/ha) | Corn plant response rating ([4]; 500 g ai/ha) | Ragweed plant response rating ([7]; 125 g ai/ha) | Wheat plant response rating ([8]; 125 g ai/ha) | Blackgrass plant response rating ([9]; 125 g ai/ha) | Barnyardgrass plant response rating (0 to 100 scale, 0 is no effect, 100 is complete control) [11] | Rice plant response rating (0 to 100 scale, 0 is no effect, 100 is complete control) [12] | Plant response rating (0 to 100 scale), Ragweed ([19]; 125 g ai/ha)

COc1ncc(-c2c(O)c(C)nn(C)c2=O)c2ccccc12 [Compound 16]
20: Blackgrass plant response rating ([9]; 500 g ai/ha)
40: Pigweed plant response rating ([5]; 125 g ai/ha) | Plant response rating (0 to 100 scale), Kochia ([16]; 125 g ai/ha)
30: Ragweed plant response rating ([7]; 125 g ai/ha) | Plant response rating (0 to 100 scale), Pigweed ([18]; 125 g ai/ha) | Plant response rating (0 to 100 scale), Ragweed ([19]; 125 g ai/ha)
80: Plant response rating (0 to 100 scale), Ryegrass, It. ([20]; 125 g ai/ha)
100: Kochia plant response rating ([2]; 500 g ai/ha) | Galium plant response rating ([6]; 500 g ai/ha) | Ryegrass, It. plant response rating ([10]; 500 g ai/ha) | Plant response rating (0 to 100 scale), Kochia ([16]; 500 g ai/ha) | Plant response rating (0 to 100 scale), Pigweed ([18]; 500 g ai/ha)
0: Barnyardgrass plant response rating ([1]; 125 g ai/ha) | Foxtail, Giant plant response rating ([3]; 125 g ai/ha) | Foxtail, Giant plant response rating ([3]; 500 g ai/ha) | Corn plant response rating ([4]; 125 g ai/ha) | Corn plant response rating ([4]; 500 g ai/ha) | Wheat plant response rating ([8]; 125 g ai/ha) | Wheat plant response rating ([8]; 500 g ai/ha) | Blackgrass plant response rating ([9]; 125 g ai/ha) | Barnyardgrass plant response rating (0 to 100 scale, 0 is no effect, 100 is complete control) [11] | Rice plant response rating (0 to 100 scale, 0 is no effect, 100 is complete control) [12] | Sedge, Umbrella plant response rating (0 to 100 scale, 0 is no effect, 100 is complete control) [13] | Ducksalad plant response rating (0 to 100 scale, 0 is no effect, 100 is complete control) [14] | Plant response rating (0 to 100 scale), Barnyardgrass ([15]; 125 g ai/ha) | Plant response rating (0 to 100 scale), Barnyardgrass ([15]; 500 g ai/ha) | Plant response rating (0 to 100 scale), Foxtail, Giant ([17]; 125 g ai/ha) | Plant response rating (0 to 100 scale), Foxtail, Giant ([17]; 500 g ai/ha)
90: Ryegrass, It. plant response rating ([10]; 125 g ai/ha) | Plant response rating (0 to 100 scale), Ryegrass, It. ([20]; 500 g ai/ha)
70: Kochia plant response rating ([2]; 125 g ai/ha) | Pigweed plant response rating ([5]; 500 g ai/ha) | Galium plant response rating ([6]; 125 g ai/ha) | Ragweed plant response rating ([7]; 500 g ai/ha) | Plant response rating (0 to 100 scale), Ragweed ([19]; 500 g ai/ha)
10: Barnyardgrass plant response rating ([1]; 500 g ai/ha)
